Columns and labels:
Type in all cases: cell-based, Staphylococcus aureus
[1] = tested on: MRSA USF652; assay: Kirby-Bauer agar disk diffusion; parameters: Kirby-Bauer Disc Diffusion Test Results: unit not given here; conditions: for The Zone of Inhibition: Table 6; for The Zone of Inhibition / Zones of Inhibition: 20 μg disk loading; for Zones of Inhibition: Table 4; for Kirby-Bauer Disc Diffusion Test Results: Table 5, beta-lactamase producing strain
Protocol: (§1) In this study, a selection of N-methylthio-substituted β-lactams are examined for antimicrobial activity by the Kirby-Bauer disk diffusion method on agar plates. A variety of common Gram-positive and Gram-negative bacteria are tested, including clinical isolates of methicillin-resistant Staphylococcus aureus (MRSA).
(§2) Compound susceptibility measurements are obtained from agar disk diffusion experiments using 6-mm air-dried disks impregnated with 20 μg of the test compound. The values correspond to the average diameters in mm (triplicate experiments) for the zone of growth inhibition observed after 24 h. Staphylococcus aureus (ATCC 25923) and β-lactamase-producing strains of methicillin-resistant Staphylococcus aureus (labeled as MRSA USF652-659) are obtained from Lakeland Regional Medical Center, Lakeland, Fla. Staphylococcus epidermidis, Staphylococcus simulans, Staphylococcus simulans, and Microcossus luteus are clinical isolates from University of South Florida Medical Clinic. Nieserria gonnorhoeae (β-lactamase positive) is obtained from the Tampa Branch State Laboratory. PenG is penicillin G (potassium salt). Table 1 provides the zones of growth inhibition that are observed after 24 hours using the lactams of FIGS. 1A-1I (designated A-I, respectively).
(§3) Of particular interest is the ability of these compounds to retain their effectiveness against penicillin-resistant strains of Staphylococcus aureus, a dangerous hospital-borne pathogen which is becoming difficult to treat with conventional antibiotic therapy. The lactams were screened for antibacterial activity by disk diffusion on agar plates, and the resulting zones of bacterial growth inhibition measured (see Table 3; each lactam is designated by Figure number).
(§4) Table 3: Growth inhibition zones obtained from agar disk diffusion experiments using 6-mm air-dried disks impregnated with 20 μg of the test compound. The values correspond to the average diameters in mm for the zone of growth inhibition observed after 24 hours. Staphylococcus aureus and β-lactamase-producing strains of methicillin-resistant Staphylococcus aureus (labeled MRSA USF652-659) are obtained from a clinical testing laboratory at Lakeland Regional Medical Center, Lakeland, Fla.
(§5) Those compounds were tested for bioactivity using the Kirby-Bauer test on agar plates.
(§6) Biological activity is enhanced against β-lactamase producing strains of methicillin-resistant Staphylococcus aureus (MRSA). With the lactam shown in FIG. 11A serving as a lead structure, a series of other C-4 substituted derivatives (FIGS. 11B-11I) were investigated herein. Table 5 lists microbiological data for β-lactams from Kirby-Bauer Disc Diffusion Test Results (with each lactam identified by Figure number).
(§7) Scheme I summarizes the synthesis of ester compounds 4. 4-Carboxy benzaldehyde (1) is coupled with the appropriate alcohol using DCC/DMAP, followed by reaction with p-anisidine, to give imines 2. Staudinger coupling of methoxyacetyl chloride with imine 2 gives N-aryl protected β-lactam 3. N-Dearylation of β-lactam 3 with ceric ammonium nitrate and methylthiolation with N-(methylthio)phthalimide affords N-methylthio β-lactams 4. These compounds are tested for antibacterial activity by the Kirby-Bauer method of disc diffusion on agar plates. [drawing 7]

[2] = tested on: MRSA USF653; assay: Kirby-Bauer agar disk diffusion; parameters: Kirby-Bauer Disc Diffusion Test Results: unit not given here; conditions: for The Zone of Inhibition: Table 6; for The Zone of Inhibition / Zones of Inhibition: 20 μg disk loading; for Zones of Inhibition: Table 4; for Kirby-Bauer Disc Diffusion Test Results: Table 5, beta-lactamase producing strain
Protocol: as §1, §2, §3, §4, §5, §6, §7

[3] = tested on: MRSA USF654; assay: Kirby-Bauer agar disk diffusion; parameters: Kirby-Bauer Disc Diffusion Test Results: unit not given here; conditions: for The Zone of Inhibition: Table 6; for The Zone of Inhibition / Zones of Inhibition: 20 μg disk loading; for Zones of Inhibition: Table 4; for Kirby-Bauer Disc Diffusion Test Results: Table 5, beta-lactamase producing strain
Protocol: as §1, §2, §3, §4, §5, §6, §7

[4] = tested on: MRSA USF655; assay: Kirby-Bauer agar disk diffusion; parameters: Kirby-Bauer Disc Diffusion Test Results: unit not given here; conditions: for The Zone of Inhibition: Table 6; for The Zone of Inhibition / Zones of Inhibition: 20 μg disk loading; for Zones of Inhibition: Table 4; for Kirby-Bauer Disc Diffusion Test Results: Table 5
Protocol: as §1, §2, §3, §4, §5, §6, §7

[5] = tested on: MRSA USF656; assay: Kirby-Bauer agar disk diffusion; parameters: Kirby-Bauer Disc Diffusion Test Results: unit not given here; conditions: for The Zone of Inhibition: Table 6; for The Zone of Inhibition / Zones of Inhibition: 20 μg disk loading; for Zones of Inhibition: Table 4; for Kirby-Bauer Disc Diffusion Test Results: Table 5, beta-lactamase producing strain
Protocol: as §1, §2, §3, §4, §5, §6, §7

[6] = tested on: MRSA USF657; assay: Kirby-Bauer agar disk diffusion; parameters: Kirby-Bauer Disc Diffusion Test Results: unit not given here; conditions: for The Zone of Inhibition: Table 6; for The Zone of Inhibition / Zones of Inhibition: 20 μg disk loading; for Zones of Inhibition: Table 4; for Kirby-Bauer Disc Diffusion Test Results: Table 5, beta-lactamase producing strain
Protocol: as §1, §2, §3, §4, §5, §6, §7

[7] = tested on: MRSA USF658; assay: Kirby-Bauer agar disk diffusion; parameters: Kirby-Bauer Disc Diffusion Test Results: unit not given here; conditions: for The Zone of Inhibition: Table 6; for The Zone of Inhibition / Zones of Inhibition: 20 μg disk loading; for Zones of Inhibition: Table 4; for Kirby-Bauer Disc Diffusion Test Results: Table 5, beta-lactamase producing strain
Protocol: as §1, §2, §3, §4, §5, §6, §7

[8] = tested on: MRSA USF659; assay: Kirby-Bauer agar disk diffusion; parameters: Kirby-Bauer Disc Diffusion Test Results: unit not given here; conditions: for The Zone of Inhibition: Table 6; for The Zone of Inhibition / Zones of Inhibition: 20 μg disk loading; for Zones of Inhibition: Table 4; for Kirby-Bauer Disc Diffusion Test Results: Table 5, beta-lactamase producing strain
Protocol: as §1, §2, §3, §4, §5, §6, §7

[9] = tested on: Staphylococcus strains including MRSA; assay: antibacterial activity screening, results stated in words
Description: However, the N-alkylthio substituent is required, since reduction to the N—H analogue completely destroys the biological activity. […]
as §3
With the lactam of FIG. 6A serving as a lead structure, other C4-unsaturated derivatives (FIGS. 6B-6E) and C4-saturated analogues (FIGS. 6F-6H), were examined all of which also have activity against Staphylococcus strains including MRSA.
as §7

[10] = tested on: Staph aureus 525; assay: Kirby-Bauer agar disk diffusion; conditions: for Zones of Inhibition: Table 4, 20 μg disk loading; for Kirby-Bauer Disc Diffusion Test Results: Table 5
[11] = Example 6, MRSA strains of Table 6

Structure (SMILES): CCCCCCCCCCOC(=O)c1ccc(C2C(OC)C(=O)N2SC)cc1 (racemic) [4e]
- The Zone of Inhibition [1]: 0 mm
- The Zone of Inhibition [2]: 0 mm
- The Zone of Inhibition [3]: 0 mm
- The Zone of Inhibition [4]: 0 mm
- The Zone of Inhibition [5]: 0 mm
- The Zone of Inhibition [6]: 0 mm
- The Zone of Inhibition [7]: 0 mm
- The Zone of Inhibition [8]: 0 mm
- antibacterial activity, in words [9, 11]: no activity

Structure (SMILES): COC1C(=O)N(SC)C1c1ccccc1Cl (racemic) [Methyl-thio]
- Zones of Inhibition [1]: 30 mm
- Zones of Inhibition [2]: 29 mm
- Zones of Inhibition [3]: 26 mm
- Zones of Inhibition [4]: 26 mm
- Zones of Inhibition [5]: 28 mm
- Zones of Inhibition [6]: 27 mm
- Zones of Inhibition [7]: 26 mm
- Zones of Inhibition [8]: 23 mm
- Zones of Inhibition [10]: 26 mm

Structure (SMILES): COC(=O)c1ccc(C2C(OC)C(=O)N2SC)cc1 (racemic) [FIG. 7J]
- antibacterial activity, in words ([9]; Example 3 SAR): showing antibacterial activity

Structure (SMILES): COC1C(=O)N(SC)C1c1ccccc1Cl (racemic) [FIG. 7A]
- antibacterial activity, in words ([9]; Example 3 SAR): most active analogue

Structure (SMILES): COC1C(=O)N(SC)C1c1ccccc1 (racemic) [FIG. 11B]
- Kirby-Bauer Disc Diffusion Test Results [1]: 30
- Kirby-Bauer Disc Diffusion Test Results [2]: 30
- Kirby-Bauer Disc Diffusion Test Results [3]: 26
- Kirby-Bauer Disc Diffusion Test Results [4]: 26
- Kirby-Bauer Disc Diffusion Test Results [5]: 28
- Kirby-Bauer Disc Diffusion Test Results [6]: 28
- Kirby-Bauer Disc Diffusion Test Results [7]: 27
- Kirby-Bauer Disc Diffusion Test Results [8]: 24
- Kirby-Bauer Disc Diffusion Test Results [10]: 25

Structure (SMILES): COC(=O)c1ccc(C2C(OC)C(=O)N2SC)cc1 (racemic) [4a]
- The Zone of Inhibition [1]: 12 mm
- The Zone of Inhibition [2]: 14 mm
- The Zone of Inhibition [3]: 8 mm
- The Zone of Inhibition [4]: 14 mm
- The Zone of Inhibition [5]: 11 mm
- The Zone of Inhibition [6]: 12 mm
- The Zone of Inhibition [7]: 9 mm
- The Zone of Inhibition [8]: 13 mm
- antibacterial activity, in words [9, 11]: about similar activity

Structure (SMILES): COC1C(=O)N(SC2CCCCC2)C1c1ccccc1Cl (racemic) [Cyclo-hexyl]
- Zones of Inhibition [1]: 25 mm
- Zones of Inhibition [2]: 20 mm
- Zones of Inhibition [3]: 21 mm
- Zones of Inhibition [4]: 22 mm
- Zones of Inhibition [5]: 23 mm
- Zones of Inhibition [6]: 23 mm
- Zones of Inhibition [7]: 26 mm
- Zones of Inhibition [8]: 22 mm
- Zones of Inhibition [10]: 21 mm

Structure (SMILES): CCCCCOC(=O)c1ccc(C2C(OC)C(=O)N2SC)cc1 (racemic) [4c]
- The Zone of Inhibition [1]: 17 mm
- The Zone of Inhibition [2]: 13 mm
- The Zone of Inhibition [3]: 11 mm
- The Zone of Inhibition [4]: 13 mm
- The Zone of Inhibition [5]: 14 mm
- The Zone of Inhibition [6]: 14 mm
- The Zone of Inhibition [7]: 12 mm
- The Zone of Inhibition [8]: 12 mm
- antibacterial activity, in words [9, 11]: about similar activity

Structure (SMILES): COC1C(=O)N(SC)C1c1ccc(Cl)cc1 (racemic) [FIG. 11H]
- Kirby-Bauer Disc Diffusion Test Results [1]: 24
- Kirby-Bauer Disc Diffusion Test Results [2]: 28
- Kirby-Bauer Disc Diffusion Test Results [3]: 23
- Kirby-Bauer Disc Diffusion Test Results [4]: 23
- Kirby-Bauer Disc Diffusion Test Results [5]: 22
- Kirby-Bauer Disc Diffusion Test Results [6]: 22
- Kirby-Bauer Disc Diffusion Test Results [7]: 20
- Kirby-Bauer Disc Diffusion Test Results [8]: 18
- Kirby-Bauer Disc Diffusion Test Results [10]: 24

Structure (SMILES): COC1C(=O)N(SC)C1c1ccccc1 (racemic) [FIG. 6J]
- antibacterial activity, in words ([9]; Example 3 SAR): highly active

Structure (SMILES): COC1C(=O)N(SC)C1C#Cc1ccccc1 (racemic) [FIG. 6A]
- antibacterial activity, in words ([9]; Example 3 SAR): inhibits the in vitro growth

Reference: patent US6946458B2, “N-thiolated beta-lactams: novel antibacterial agents for methicillin-resistant Staphylococcus aureus” (University of South Florida, priority 1999, dated 2005)
